This note sets out measurements from ChEMBL document CHEMBL5608232, “Novel Glucagon-like Peptide 1 Receptor Agonists for Treating Type II Diabetes” (ACS Med Chem Lett, 2024).

The target in the test is Glucagon-like peptide 1 receptor (Homo sapiens, UniProt P43220). The test can be described thus: Agonist activity at human GLP-1R expressed in HEK293 cells assessed as increase in intracellular cAMP level incubated for 30 mins by HTRF assay. The format is functional, cell-based. (In general: Changes in cAMP serve as a functional read-out for many G protein-coupled receptors.)
Glucagon-like peptide 1 receptor, sequence (P43220 whole entry): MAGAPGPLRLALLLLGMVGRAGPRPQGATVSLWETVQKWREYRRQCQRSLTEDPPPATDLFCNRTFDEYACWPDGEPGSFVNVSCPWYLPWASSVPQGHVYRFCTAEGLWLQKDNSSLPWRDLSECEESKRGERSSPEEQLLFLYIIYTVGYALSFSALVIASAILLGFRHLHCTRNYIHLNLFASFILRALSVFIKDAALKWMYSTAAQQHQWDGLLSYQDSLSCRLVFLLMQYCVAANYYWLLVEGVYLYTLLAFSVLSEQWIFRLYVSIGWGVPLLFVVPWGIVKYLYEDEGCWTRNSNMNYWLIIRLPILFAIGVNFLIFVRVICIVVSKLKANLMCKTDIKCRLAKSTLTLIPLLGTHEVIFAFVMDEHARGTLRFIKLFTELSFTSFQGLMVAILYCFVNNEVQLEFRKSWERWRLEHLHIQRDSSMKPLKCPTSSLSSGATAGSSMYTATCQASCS

For `COc1cc(C(=O)O)cc2c1nc(Cc1cc(F)c(-c3cccc(OCc4ccc(C#N)cc4C)n3)cc1F)n2C[C@@H]1CCO1`, the EC50 (as a rule, the concentration that produces a half-maximal response) amounted to 0.3 nM.

As for `COCCOc1cc(C(=O)O)cc2c1nc(Cc1cc(F)c(-c3cccc(OCc4ccc(C#N)cc4F)n3)cc1F)n2C[C@@H]1CCO1`, the concentration for a half-maximal effect (EC50) came out at 0.297 nM.

Consider `COc1cc(C(=O)O)cc2c1nc(Cc1cc(C)c(-c3cccc(OCc4ccc(C#N)cc4F)n3)cc1F)n2C[C@@H]1CCO1`, for which the EC50 was found to be 0.291 nM.

Regarding `COc1cc(C(=O)O)cc2c1nc(Cc1cc(F)c(-c3cccc(OCc4ccc(C#N)cc4F)n3)cc1F)n2C[C@@H]1CCO1`, the half-maximal effective concentration (EC50) is 0.221 nM.

Take `COc1cc(C#N)ccc1COc1cccc(-c2cc(F)c(Cc3nc4c(OC)cc(C(=O)O)cc4n3C[C@@H]3CCO3)cc2F)n1`: the EC50 turned out to be 0.167 nM.

For `COc1cc(C(=O)O)cc2c1nc(Cc1cc(F)c(-c3cccc(OCc4ccc(-n5cncn5)cc4)n3)cc1F)n2C[C@@H]1CCO1`, the EC50 came to 0.402 nM.
